Experimental findings from patent US20250228239A1, “MOLECULES HAVING PESTICIDAL UTILITY, AND INTERMEDIATES, COMPOSITIONS, AND PROCESSES, RELATED THERETO” (priority 2024, published 2025) are described below.

Like-named read-outs stand apart in the source and are kept apart here.

Assay [1] deals with Beet Armyworm (Spodoptera exigua, LAPHEG). The experiment in a line: Bioassays on Beet Armyworm (BAW), 128-well diet tray assay. Particulars: Spodoptera exigua. The assay is classed as in vivo. The essentials: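 Larvae at second instar are exposed on dried, compound-treated diet (50 μg/cm^2, delivered in 90:10 acetone-water) in eight replicate wells. After five to seven days at 25° C., 14:10 light-dark, percent mortality in each well is scored and the eight wells averaged.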

The test system of assay [2] is Cabbage Looper (Trichoplusia ni, TRIPNI). The experiment in a line: Bioassays on Cabbage Looper (CL), 128-well diet tray assay. The assay is classed as in vivo. The settings on record: Trichoplusia ni. The procedure, abridged:
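Each of eight wells receives artificial diet treated at 50 μg/cm^2 with the test molecule, then one to five second-instar larvae. Incubation runs five to seven days at 25° C with a 14:10 light-dark cycle under vented covers. Mortality is scored per well as a percentage and averaged.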

The mark [3] stands for this setting: Beet Armyworm, rating class, read-out: BAW.
The mark [4] stands for this setting: Cabbage Looper, rating class, read-out: CL.
The mark [5] stands for this setting: Beet Armyworm, Table ABC / ABC-DP rating, read-out: BAW rating.
The mark [6] stands for this setting: Cabbage Looper, Table ABC / ABC-DP rating, read-out: CL rating.
[7] abbreviates: Table ABC: Biological Results, species BAW, read-out: BAW.
[8] abbreviates: Table ABC: Biological Results, species CL, read-out: CL.

As to `O=C(Nc1cc(NC(=O)C(F)F)c(F)cc1F)c1cc(NC(=O)[C@H]2[C@H](c3ccc(F)c(C(F)(F)F)c3)C2(Cl)Cl)ccc1Cl` [F1540, 2-Chloro-5-((1R,3R)-2,2-dichloro-3-(4-fluoro-3-(trifluoromethyl)phenyl)cyclopropane-1-carboxamido)-N-(5-(2,2-difluoroacetamido)-2,4-difluorophenyl)benzamide], the pest or weed control at 50 µg/cm2 in assay [1] (setting [3]) and in assay [2] (setting [4]) was 50 to 100% each time.

Regarding `O=C(CC(C(F)(F)F)C(F)(F)F)Nc1c(F)ccc(NC(=O)c2cc(NC(=O)[C@H]3[C@H](c4ccc(F)c(C(F)(F)F)c4)C3(Cl)Cl)ccc2Cl)c1F` [F1833, 2-Chloro-5-((1R,3R)-2,2-dichloro-3-(4-fluoro-3-(trifluoromethyl)phenyl)cyclopropane-1-carboxamido)-N-(2,4-difluoro-3-(4,4,4-trifluoro-3-(trifluoromethyl)butanamido)phenyl)benzamide], the pest or weed control at 50 µg/cm2 in assay [1] (setting [5]) and in assay [2] (setting [6]) was 50 to 100% each time.

In the case of `O=C(Nc1cc(NC(=O)C(F)(F)F)c(F)cc1F)c1cc(NC(=O)[C@H]2[C@H](c3cc(Cl)c(Cl)c(Cl)c3)C2(Cl)Cl)cc(F)c1Cl` [F1405, 2-Chloro-5-((1R,3R)-2,2-dichloro-3-(3,4,5-trichlorophenyl)cyclopropane-1-carboxamido)-N-(2,4-difluoro-5-(2,2,2-trifluoroacetamido)phenyl)-3-fluorobenzamide], the pest or weed control at 50 µg/cm2 in assay [1] (setting [3]) and in assay [2] (setting [4]) was 50 to 100% in each case.

Consider `CC(=O)Nc1cc(NC(=O)c2cc(NC(=O)[C@H]3[C@H](c4ccc(F)c(C(F)(F)F)c4)C3(Cl)Cl)ccc2Cl)c(F)cc1F` [F1539, N-(5-Acetamido-2,4-difluorophenyl)-2-chloro-5-((1R,3R)-2,2-dichloro-3-(4-fluoro-3-(trifluoromethyl)phenyl)cyclopropane-1-carboxamido)benzamide], for which the pest or weed control at 50 µg/cm2 in assay [1] (setting [3]) and in assay [2] (setting [4]) was 50 to 100% each time.

On to `Cc1cc(F)c(NC(=O)c2cc(NC(=O)[C@H]3[C@H](c4ccc(F)c(Cl)c4)C3(Cl)Cl)ccc2Cl)cc1N` [F1135, N-(5-Amino-2-fluoro-4-methylphenyl)-2-chloro-5-((1R,3R)-2,2-dichloro-3-(3-chloro-4-fluorophenyl)cyclopropane-1-carboxamido)benzamide], for which the pest or weed control at 50 µg/cm2 in assay [1] (setting [7]) and in assay [2] (setting [8]) was 50 to 100% in each case.

For `O=C(NCC(F)(F)F)NNC(=O)c1cc(NC(=O)[C@H]2[C@H](c3cc(Cl)cc(Cl)c3)C2(Cl)Cl)ccc1Cl` (relative stereo) [F2535, trans-2-(2-chloro-5-(2,2-dichloro-3-(3,5-dichlorophenyl)cyclopropane-1-carboxamido)benzoyl)-N-(2,2,2-trifluoroethyl)hydrazine-1-carboxamide], the pest or weed control at 50 µg/cm2 in assay [1] (setting [5]) and in assay [2] (setting [6]) was 50 to 100% throughout.

In the case of `Cc1cc(NCC(C)c2ccccc2)ccc1NC(=O)c1cc(NC(=O)[C@H]2[C@H](c3cc(Cl)cc(Cl)c3)C2(Cl)Cl)ccc1Cl` (relative stereo) [F1178, trans-2-Chloro-5-(2,2-dichloro-3-(3,5-dichlorophenyl)cyclopropane-1-carboxamido)-N-(2-methyl-4-((2-phenylpropyl)amino)phenyl)benzamide], the pest or weed control at 50 µg/cm2 in assay [1] (setting [7]) and in assay [2] (setting [8]) was 50 to 100% throughout.

On to `CC(=O)Nc1c(F)ccc(NC(=O)c2cc(NC(=O)[C@H]3[C@H](c4ccc(F)c(Br)c4)C3(Cl)Cl)ccc2Cl)c1F` [F1716, N-(3-Acetamido-2,4-difluorophenyl)-5-((1R,3R)-3-(3-bromo-4-fluorophenyl)-2,2-dichlorocyclopropane-1-carboxamido)-2-chlorobenzamide], for which the pest or weed control at 50 µg/cm2 in assay [1] (setting [3]) and in assay [2] (setting [4]) was 50 to 100% in each case.
